Tests used:
[1] = target: Neuronal acetylcholine receptor subunit alpha-7 (Rattus norvegicus, UniProt Q05941); assay: Displacement of [125I]-alpha-bungarotoxin from alpha7 nicotinic acetylcholine receptor in Wistar rat frontal cortex by gamma counting; format: tissue-based
Brain = assay: Biodistribution in Wistar rat brain at 5 +/- 2 MBq, iv after 60 mins by gamma counting; format: ADME, organism-based; details: in vivo, 1 h
Cortex = assay: Biodistribution in Wistar rat cortex at 5 +/- 2 MBq, iv after 60 mins by gamma counting in presence of alpha7 nAChR antagonist methyllycaconitine; format: organism-based; details: in vivo, 1 h
Striatum = assay: Biodistribution in Wistar rat striatum at 5 +/- 2 MBq, iv after 60 mins by gamma counting in presence of alpha7 nAChR antagonist methyllycaconitine; format: organism-based; details: in vivo, 1 h
Hippocampus = assay: Biodistribution in Wistar rat hippocampus at 5 +/- 2 MBq, iv after 60 mins by gamma counting in presence of alpha7 nAChR antagonist methyllycaconitine; format: organism-based; details: in vivo, 1 h
Hypothalamus = assay: Biodistribution in Wistar rat hypothalamus at 5 +/- 2 MBq, iv after 60 mins by gamma counting in presence of alpha7 nAChR antagonist methyllycaconitine; format: organism-based; details: in vivo, 1 h
Midbrain = assay: Biodistribution in Wistar rat midbrain at 5 +/- 2 MBq, iv after 60 mins by gamma counting in presence of alpha7 nAChR antagonist methyllycaconitine; format: organism-based, Brain; details: in vivo, 1 h
Cerebellum = assay: Biodistribution in Wistar rat cerebellum at 5 +/- 2 MBq, iv after 60 mins by gamma counting in presence of alpha7 nAChR antagonist methyllycaconitine; format: organism-based; details: in vivo, 1 h

Sequence of Neuronal acetylcholine receptor subunit alpha-7 (Q05941 whole entry): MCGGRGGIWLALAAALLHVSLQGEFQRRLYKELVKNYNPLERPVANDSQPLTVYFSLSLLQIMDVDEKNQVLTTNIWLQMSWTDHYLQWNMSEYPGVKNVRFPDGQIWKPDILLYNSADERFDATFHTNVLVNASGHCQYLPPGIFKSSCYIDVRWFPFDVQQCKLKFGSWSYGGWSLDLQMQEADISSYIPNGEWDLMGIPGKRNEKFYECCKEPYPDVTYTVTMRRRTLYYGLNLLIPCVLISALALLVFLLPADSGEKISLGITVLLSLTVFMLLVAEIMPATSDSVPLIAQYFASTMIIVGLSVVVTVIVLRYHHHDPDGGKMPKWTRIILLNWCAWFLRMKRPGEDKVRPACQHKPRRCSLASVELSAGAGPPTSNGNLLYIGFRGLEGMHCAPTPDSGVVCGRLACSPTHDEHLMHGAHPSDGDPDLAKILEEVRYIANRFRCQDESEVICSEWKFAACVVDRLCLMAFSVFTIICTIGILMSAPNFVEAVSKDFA

SMILES | Ki [1] | other results
CN1[C@@H]2CC[C@H]1C[C@@H](NC(=O)c1ccc(-c3cccs3)s1)C2 | 12 nM | –
CN1[C@@H]2CC[C@H]1C[C@@H](NC(=O)c1ccc3occc3c1)C2 | 133 nM | –
CN1[C@@H]2CC[C@H]1C[C@@H](NC(=O)c1ccc(-c3ccco3)s1)C2 | 14 nM | –
O=C(N[C@H]1CN2CCC1CC2)c1ccc([18F])cc1 | – | Drug uptake (Brain): Active; Drug uptake (Cortex): Not Active; Drug uptake (Striatum): Not Active; Drug uptake (Hippocampus): Not Active; Drug uptake (Hypothalamus): Not Active; Drug uptake (Midbrain): Not Active; Drug uptake (Cerebellum): Not Active
CN1[C@@H]2CC[C@H]1C[C@@H](NC(=O)c1ccc3sccc3c1)C2 | 108 nM | –
CN1[C@@H]2CC[C@H]1C[C@@H](NC(=O)c1ccc(Cl)cc1)C2 | > 1000 nM | –
CN1[C@@H]2CC[C@H]1C[C@@H](NC(=O)c1cccs1)C2 | > 1000 nM | –
CN1[C@@H]2CC[C@H]1C[C@@H](NC(=O)c1ccc(Br)s1)C2 | 78 nM | –
